The text below walks through data of publication doi:10.1101/306035v1 (biorxiv, 2018).

The target in this experiment is T1, DcaPTrunc (Acinetobacter baumannii, UniProt A0A0D5YFT0).
T1 sequence (A0A0D5YFT0 89-434): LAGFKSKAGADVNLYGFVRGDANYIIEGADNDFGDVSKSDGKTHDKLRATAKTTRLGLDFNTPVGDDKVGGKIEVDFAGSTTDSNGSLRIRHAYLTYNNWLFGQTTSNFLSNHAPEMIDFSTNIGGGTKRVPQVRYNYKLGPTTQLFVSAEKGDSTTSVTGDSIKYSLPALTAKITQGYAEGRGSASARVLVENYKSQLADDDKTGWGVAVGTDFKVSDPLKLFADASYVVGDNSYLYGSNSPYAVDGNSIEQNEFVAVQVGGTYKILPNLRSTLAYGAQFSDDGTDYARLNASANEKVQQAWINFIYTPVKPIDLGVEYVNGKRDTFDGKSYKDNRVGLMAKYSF
The experiment can be described thus: biochemical.

SMILES strings stand for the structures.

By Kd is commonly meant the concentration at which binding is half-saturated. Lower therefore signals a tighter complex. Regarding `O=C(O)c1ccccc1C(=O)O` [o-phthalic acid], the Kd is approximately 9 mM.
